Where two headings read alike, the source gives them in different places.
What was measured:
Assay type in all cases: in vivo
[1] = system: PHACA (Phalaris canariensis, canarygrass); assay: greenhouse herbicidal activity on Phalaris canariensis; conditions: Post-Emergence; for inhibition at 50 g/ha / inhibition at 100 g/ha: Phalaris canariensis; for inhibition at 50 g/ha: 50 g ai/ha; for inhibition at 100 g/ha: 100 g ai/ha
Text: (§1) For the post-emergence treatment, the test plants were first grown to a height of 3 to 20 cm, depending on the plant habit, and only then treated. Here, the herbicidal compositions were suspended or emulsified in water as distribution medium and sprayed using finely distributing nozzles.
(§2) The respective herbicides A and/or safener were formulated as 10% by weight strength suspension concentrate and introduced to the spray liquor with the amount of solvent system used for applying the active compound. Herbicide B and/or safener were used as commercially available formulations and introduced to the spray liquor with the amount of solvent system used for applying the active compound. In the examples, the solvent used was water.
(§3) Picolinafen was used as a commercial wettable granule formulation having an active ingredient content of 75% by weight.
(§4) The test period extended over 21 days. During this time, the plants were tended, and their response to the treatments with active compound was evaluated.
(§5) The evaluation for the damage caused by the chemical compositions was carried out using a scale from 0 to 100%, compared to the untreated control plants. Here, 0 means no damage and 100 means complete destruction of the plants.
(§6) The value E, which is to be expected if the activity of the individual compounds is just additive, was calculated using the method of S. R. Colby (1967) “Calculating synergistic and antagonistic responses of herbicide combinations”, Weeds 15, p. 22 ff.
(§7) where X=effect in percent using herbicide A at an application rate a; • Y=effect in percent using herbicide B at an application rate b; • E=expected effect (in %) of A+B at application rates a+b.
(§8) If the value observed in this manner is higher than the value E calculated according to Colby, a synergistic effect is present.

[2] = system: STEME (Stellaria media, chickweed); assay: greenhouse herbicidal activity on Stellaria media; conditions: Post-Emergence; for inhibition at 50 g/ha: Stellaria media
Text: as §1, §2, §3
(§9) 4-(3-trifluoromethylphenoxy)-2-(4-trifluoromethylphenyl)-pyrimidine was used as an aqueous suspension concentrate having an active ingredient concentration of 200 g/l.
as §4, §5, §6, §7, §8

[3] = system: LOLMU (Lolium multiflorum, italian ryegrass); assay: greenhouse herbicidal activity on Lolium multiflorum; conditions: Post-Emergence; for inhibition at 13 g/ha / inhibition at 50 g/ha: Lolium multiflorum; for inhibition at 50 g/ha: 50 g ai/ha
Text: as §1, §2, §3, §9, §4, §5, §6, §7, §8

[4] = system: ALOMY (Alopecurus myosuroides, blackgrass); assay: greenhouse herbicidal activity on Alopecurus myosuroides; conditions: Post-Emergence, 20 DAT
Text: as §1
as §2, with “water. […]” for “water.”
(§10) The test period extended over 21 days. During this time, the plants were tended, and their response to the treatments with active compound was evaluated. […]
(§11) The value E, which is to be expected if the activity of the individual compounds is just additive, was calculated using the method of S. R. Colby (1967) “Calculating synergistic and antagonistic responses of herbicide combinations”, Weeds 15, p. […]
as §8

[5] = system: VERPE (Veronica persica, field speedwell); assay: greenhouse herbicidal activity on Veronica persica; conditions: Post-Emergence, 20 DAT
Text: as §1
as §2, with “water. […]” for “water.”
as §10, §11, §8

[6] = system: GALAP (Galium aparine, cleaver); assay: greenhouse herbicidal activity on Galium aparine; conditions: Post-Emergence, 20 DAT
Text: as §1, §2, §9, §4, §5, §6, §7, §8

[7] = 192 h, 8 DAT, read-out: observed % activity 8 DAT
[8] = 480 h, 20 DAT, read-out: observed % activity 20 DAT

With O=C(Nc1ccc(F)cc1)c1cccc(Oc2cccc(C(F)(F)F)c2)n1 [picolinafen] the “observed % activity 8 DAT” value ([1]; 13 g ai/ha, 8 DAT) was 10%, the “observed % activity 20 DAT” value ([1]; 13 g ai/ha, 20 DAT) was 30% and the “observed % activity 8 DAT” value ([2]; 13 g ai/ha, 8 DAT) was 60%. The “observed % activity 20 DAT” value ([2]; 13 g ai/ha, 20 DAT) was 90%, the “observed % activity 8 DAT” value ([3]; 25 g ai/ha, 8 DAT) was 0% and the “observed % activity 20 DAT” value ([3]; 25 g ai/ha, 20 DAT) was 20%.

FC(F)(F)c1ccc(-c2nccc(Oc3cccc(C(F)(F)F)c3)n2)cc1 [Compound B, 4-(3-trifluoromethylphenoxy)-2-(4-trifluoromethylphenyl)-pyrimidine] was tested, and the “observed activity in % destruction 20 days after treatment” value ([4]; 16 g ai/ha) was 15%, the “observed activity in % destruction 20 days after treatment” value ([2]; 16 g ai/ha, 20 DAT) was 95% and the “observed activity in % destruction 20 days after treatment” value ([2]; 31 g ai/ha, 20 DAT) was 95%. For the same compound, the “observed activity in % destruction 20 days after treatment” value ([5]; 31 g ai/ha) was 98%, the “observed activity in % destruction 20 days after treatment” value ([6]; 31 g ai/ha) was 85% and the “observed activity in % destruction 20 days after treatment” value ([6]; 63 g ai/ha) was 85%. The “observed activity in % destruction 20 days after treatment” value ([3]; 63 g ai/ha, 20 DAT) was 50% and the “observed activity in % destruction 20 days after treatment” value ([3]; 125 g ai/ha, 20 DAT) was 70%.

For Cn1nc(C(F)(F)F)c(CS(=O)(=O)C2=NOC(C)(C)C2)c1OC(F)F [pyroxasulfone, 3-[5-(difluoromethoxy)-1-methyl-3-(trifluoromethyl)pyrazol-4-ylmethylsulfonyl]-4,5-dihydro-5,5-dimethyl-1,2-oxazole], the “observed activity in % destruction 20 days after treatment” value ([4]; 100 g ai/ha) was 90%, the inhibition at 50 g/ha [1, 7] was 55% and the inhibition at 100 g/ha [1, 7] was 60%. For the same compound, the inhibition at 50 g/ha [1, 8] was 90%, the inhibition at 100 g/ha [1, 8] was 90% and the “observed activity in % destruction 20 days after treatment” value ([2]; 25 g ai/ha, 20 DAT) was 80%. For the same compound, the “observed activity in % destruction 20 days after treatment” value ([2]; 50 g ai/ha, 20 DAT (Table 2)) was 85%, the inhibition at 50 g/ha ([2]; 192 h, 50 g ai/ha, 8 DAT, read-out: observed % activity 8 DAT) was 70% and the inhibition at 50 g/ha ([2]; 480 h, 50 g ai/ha, 20 DAT, read-out: observed % activity 20 DAT) was 85%. The “observed activity in % destruction 20 days after treatment” value ([5]; 25 g ai/ha) was 60%, the “observed activity in % destruction 20 days after treatment” value ([6]; 25 g ai/ha) was 90% and the “observed activity in % destruction 20 days after treatment” value ([6]; 50 g ai/ha) was 90%. For the same compound, the “observed activity in % destruction 20 days after treatment” value ([6]; 100 g ai/ha) was 95%, the inhibition at 13 g/ha ([3]; 192 h, 13 g ai/ha, 8 DAT, read-out: observed % activity 8 DAT) was 40% and the inhibition at 50 g/ha [3, 7] was 50%. The inhibition at 13 g/ha ([3]; 480 h, 13 g ai/ha, 20 DAT, read-out: observed % activity 20 DAT) was 50%, the inhibition at 50 g/ha [3, 8] was 85% and the “observed activity in % destruction 20 days after treatment” value ([3]; 13 g ai/ha, 20 DAT (Table 2)) was 50%. For the same compound, the “observed activity in % destruction 20 days after treatment” value ([3]; 25 g ai/ha, 20 DAT (Table 2)) was 75%.
